Measurements taken from publication PMC9894685, “Abscisic acid agonists suitable for optimizing plant water use” (Frontiers in Plant Science, 2023).
pIC50: −log10 of the molar value. Values joined by “and” are separate entries in the source; they are usually repeats but may differ in a detail not shown here. Identical values can stand only once. Like-named read-outs stand apart in the source and are kept apart here. Each block holds one compound with its values, some of them ahead of it.

What was measured:
RCAR11-ABI2 = assay: Yeast ABA signal pathway LUC reporter, RCAR11-ABI2; type: cell-based, Arabidopsis thaliana
Experimental: The yeast cultivation and the life luciferase assay were performed as described ([Ruschhaupt et al., 2019]). Briefly, the reporter yeast expressing an ABA-dependent luciferase gene (LUC) was transformed with different combinations of ABA signaling components as indicated. Golden gate cloning ([Binder et al., 2014]) was used to construct pYEAST_LII_5‐6_CEN_URA vector with TDH3 promoter and TDH1 terminator (tTDH1), pYEAST_LII_1‐2_CEN_LEU vector with GK1 promoter and tTDH1, and pYEAST_LII_3‐4_CEN_TRP with the GAL1 promoter (pGAL1) and tTDH1 to express RCARs, PP2Cs, and OST1 (SnRK2.6), respectively ([Ruschhaupt et al., 2019]). The expression of ABF2 in yeast relies on a modified pGREG503 vector, in which pGAL1 ([Jansen et al., 2005]) was replaced by the ADH1 promoter.
Colonies of freshly transformed cells were inoculated in 0.5 mL supplemented synthetic dextrose (SD) medium and incubated at 30°C in a gyratory shaker (Thermoshake-THO500, Gerhardt, Königswinter, Germany) at 200 rpm for 16-18 h. After overnight growth, the cells were harvested and washed in SD medium followed by inoculation in SD medium containing 2% galactose for induction of SnRK2 kinases under the control of the GAL1 promoter and supplementation with ligands at indicated concentrations, to an OD600 of 0.2 in flat-bottom 96-well plates (CytoOne, Starlab, Hamburg, Germany). Yeast cultures were incubated at 30°C and 200 rpm for 16-18 h before determination of LUC activity and cell density. Light emission of yeasts was detected in a HIDEX plate luminometer (HIDEX, Turku, Finland) after injection of 100 µL freshly prepared luciferin substrate (1 mM D-luciferin, Promega) provided in 100 mM citric acid, pH 3 ([Leskinen et al., 2003]) for 5 s and was corrected for background. The LUC activity was normalized to the cell density (OD600) measured in 96-well flat plates (Sarstedt, Nümbrecht, Germany). LUC activity is given as the ratio of light emission to OD600 in counts per second.

RCAR1-ABI2 = molecular target: T1, RCAR1-ABI2 (Arabidopsis thaliana, UniProt O04719+Q84MC7); assay: In vitro phosphatase assay, ABI2 with RCAR1; type: biochemical
T1 construct: 6xHis (N); made in house; host or cells: Escherichia coli BL21
T1 sequence (Q84MC7 1-187): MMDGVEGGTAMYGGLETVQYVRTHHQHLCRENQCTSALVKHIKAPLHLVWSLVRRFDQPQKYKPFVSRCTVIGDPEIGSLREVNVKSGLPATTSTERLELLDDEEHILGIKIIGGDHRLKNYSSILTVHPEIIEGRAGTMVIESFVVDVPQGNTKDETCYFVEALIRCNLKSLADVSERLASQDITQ
T1 sequence (O04719 1-423): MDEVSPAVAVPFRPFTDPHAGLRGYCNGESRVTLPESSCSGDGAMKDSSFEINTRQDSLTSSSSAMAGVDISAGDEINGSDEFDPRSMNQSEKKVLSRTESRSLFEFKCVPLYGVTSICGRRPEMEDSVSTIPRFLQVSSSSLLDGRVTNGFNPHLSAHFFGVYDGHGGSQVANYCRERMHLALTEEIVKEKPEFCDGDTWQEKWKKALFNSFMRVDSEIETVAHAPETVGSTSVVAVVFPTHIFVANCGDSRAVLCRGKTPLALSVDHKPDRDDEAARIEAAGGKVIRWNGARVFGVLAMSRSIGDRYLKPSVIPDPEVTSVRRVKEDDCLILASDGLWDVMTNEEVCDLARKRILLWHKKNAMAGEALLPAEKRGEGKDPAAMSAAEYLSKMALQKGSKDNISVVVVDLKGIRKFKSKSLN
Experimental: (§1) Expression, purification, and analysis of RCAR and PP2C proteins were performed essentially as described ([Ruschhaupt et al., 2019]). Briefly, the ABA receptors RCAR1, RACR8, and RCAR11 were expressed with an aminoterminal histidine tag using the pSEVA431_LII_6xHIS::RCAR1/RCAR8/RCAR11. ABA coreceptors were expressed as histidine-tagged fusions with the maltose-binding protein using the pSEVA431_LII_6xHIS::MBP::ABI2/HAB1. All constructs were transformed and expressed in Escherichia coli strain BL21 and purified to homogeneity according to supplier’s instruction (GE Healthcare, Chicago, USA). The receptor assay was performed with 100 nM PP2C and a two-fold molar excess of RCAR. Values are means ± SD of three replicates. […] The maximum inhibition was set to 100% in the figures. The phosphatase activity was measured using 4-methylumbelliferyl-phosphate as a substrate ([Meinhard and Grill, 2001]). The increase in fluorescence was recorded over 25 min with excitation and emission wavelengths at 360 and 460 nm, respectively, using a Synergy 2 plate reader (Bio-Tec, Winooski, USA).

Arabidopsis plants [1] = assay: Foliar administration and thermal imaging of leaf temperature (transpiration), Arabidopsis; type: in vivo, Arabidopsis thaliana
Experimental: (§2) Thermal imaging was carried out as described ([Yang et al., 2016]). An assessment of the efficacy of ABA and CCPs was conducted by using 35-day-old Arabidopsis and 30-day-old wheat plants. Stock solutions (10 mM) of CCPs and ABA dissolved in dimethyl sulfoxide (DMSO) were diluted to the respective ligand concentrations (10, 30, 100 µM) in water containing 0.01% (v/v) Tween 20. Aqueous Tween 20 solutions supplemented with 0.1%, 0.3%, and 1% DMSO served for mock treatments. The solutions were sprayed onto the leaf surface until the run-off of droplets. One day after application (unless otherwise indicated), thermal imaging was conducted using the InfraTec instrument (IR-TCM 384, InfraTec, Dresden, Germany). The leaf temperature of Arabidopsis was determined as the average temperature of all leaves. The leaf temperature of wheat was determined as described ([Yang et al., 2019]).

Arabidopsis plants [2] = assay: Progressive drought experiment: growth, water consumption, WUE; type: in vivo, Arabidopsis thaliana; conditions: 30 µM
Experimental: The progressive drought experiment was performed as described ([Yang et al., 2016]). Briefly, 18-day-old Arabidopsis plantlets grown under well-watered and short-day conditions (8 h light with 150 µmol m^-2 s^-1 PAR, 22°C, 50% relative humidity, and 16 h dark with 17°C, 60% relative humidity) were transferred to 0.2 L pots loaded with water-saturated soil (33.4 ± 0.4 g dry soil with 148 ± 2 g water). At the onset of the progressive drought (day 0), water was withheld, and a sealed soil surface prevented evaporation. A slowly increasing water deficit was achieved by transpirational water loss from plants. The progressive drought experiment lasted for eight weeks until mock-treated plants had consumed all the plant-usable water. […] For measuring growth and water consumption, leaf rosettes were regularly photographed, and the pots were weighed. The projected leaf area of Arabidopsis rosettes was analyzed by using Photoshop Elements software (Adobe, San Jose, USA). The consumed water was calculated as the difference in pot weight between day 0 and the designated days. The retained water was expressed as the difference between the pot weight at the end of the drought (day 57) and the weight of the loaded dry soil. Above-ground material was harvested at day 57, and the biomass was determined after drying the material for three days at 60°C to achieve constant weight. WUE was calculated as the ratio of above-ground dry biomass to consumed water. The data for the mock- and ABA-treated plants in the progressive drought experiment were already published ([Yang et al., 2019]).

wheat plants = assay: Foliar administration and thermal imaging of leaf temperature, wheat; type: in vivo, Triticum aestivum
Experimental: as §2

ABI2 with RCARs = assay: In vitro receptor assay, ABI2 in the presence of RCAR1, RCAR8 or RCAR11; type: biochemical, Arabidopsis thaliana
Experimental: as §1

HAB1 with RCARs = assay: In vitro receptor assay, HAB1 in the presence of RCARs; type: biochemical, Arabidopsis thaliana; conditions: HAB1, in the presence of RCARs and saturating ABA levels (1 mM)
Experimental: as §1

Arabidopsis plants [3] = test system: Arabidopsis plants; design: method as in Yang et al., 2019; conditions: ref Yang et al., 2019, cited from earlier work
Arabidopsis = test system: Arabidopsis; design: method as in Vaidya et al., 2019; conditions: 50 µM; ref Vaidya et al., 2019; cited from earlier work
tomato = test system: tomato; design: method as in Vaidya et al., 2019; conditions: ref Vaidya et al., 2019; cited from earlier work
wheat = test system: wheat; design: method as in Vaidya et al., 2019; conditions: ref Vaidya et al., 2019; cited from earlier work
[4] = test system: Arabidopsis aba2-1 protoplasts; assay: Transient ABA response in Arabidopsis protoplasts (pRD29B::LUC, RCAR11 and ABI2 effectors); type: cell-based, Arabidopsis thaliana; conditions: aba2-1 protoplasts, 18 h ligand exposure
Experimental: Preparation of Arabidopsis protoplasts, transfection of the effector DNA, and analysis of LUC activity were performed as described ([Tischer et al., 2017]). In essence, 10^5 mesophyll protoplasts from leaves of the ABA deficient mutant aba2-1 ([Schwartz et al., 1997]) were transfected with 4 µg DNA of the pRD29B::LUC construct as an ABA-responsive reporter and 3 µg of p35S::GUS (β-glucuronidase reporter gene) expression cassette as an internal control for normalization. In addition, 3 µg p35S::RCAR11 or the empty vector with the same expression cassette were co-expressed with 0.1 µg p35S::ABI2 effector constructs ([Tischer et al., 2017]), and the ligand-dependent induction of ABA-responsive reporter expression were assessed after incubation at 22°C. The expression of LUC and GUS was determined 18 h after transfection and ligand administration.

pig liver esterase = assay: De-esterification of CCPs by pig liver esterase (HPLC); type: in vitro ADME; conditions: 4 nkat pig liver esterase, 2 h, 25°C
From the text: (S)-ABA was purchased from CHEMOS (www.chemos.de). Other chemicals were of the highest purity available and obtained from SigmaAldrich (www.sigmaaldrich.com), ROTH (www.carlroth.com), and J. T. Baker (http://www.avantormaterials.com) unless otherwise indicated. The Arabidopsis (Arabidopsis thaliana) accession Col-0 was received from the Nottingham Arabidopsis Stock Center. The elite wheat (Triticum aestivum) cultivar, Elixer, was provided from Bayerische Landesanstalt für Landwirtschaft, Freising. ABA and CCPs were dissolved in DMSO and diluted to designated concentrations before administration. For de-esterification, 0.2 µmol CCP was treated with 4 nkat pig liver esterase (Sigma-Aldrich, Burlington, MA, USA) for 2 h at 25°C according to supplier’s instruction.

Structure (SMILES): CC1=CC(=O)CC(C)(C)[C@@]1(O)/C=C/C(C)=C\C(=O)O [ABA, abscisic acid]
- LUC reporter induction compared to mock-treated cells (RCAR11-ABI2; 30 µM exogenous ligand, 16 h exposure): approximately eightfold
- pIC50 (RCAR1-ABI2): 7.00
- Time until leaf temperature reached starting values (Arabidopsis plants [1]; 10 µM): eight
- Time of optimum of inhibited transpiration (Arabidopsis plants [1]; after single administration): between two and four days after administration
- Daily growth reduction (Arabidopsis plants [2]): 1%
- Higher leaf temperature compared to the control (wheat plants; 0.1 mM, one day after administration, averaged from six experiments): approximately 0.8 °C
- Leaf temperature increase at 100 μM ABA (wheat plants; 24 h, separate experiments run in parallel to the CCPs): 0.6 ± 0.18 °C and 0.9 ± 0.19 °C and 0.6 ± 0.12 °C and 0.9 ± 0.03 °C and 0.9 ± 0.10 °C and 0.9 ± 0.07 °C
- Residual phosphatase activity (ABI2 with RCARs; ABI2, in the presence of RCARs and saturating ABA levels (1 mM)): 10%
- Residual phosphatase activity (HAB1 with RCARs): 4%
- Growth of leaf rosettes compared to mock (Arabidopsis plants [3]; 10 µM, for six weeks): indistinguishable
- WUE increase (Arabidopsis plants [3]; 10 µM): 14%
- Soil water retained at the end of the drought, of initial soil water (Arabidopsis plants [3]; 30 µM, day 57): about 25%
- Reduced projected leaf area (Arabidopsis plants [3]; 30 µM, within 19 days): 20%
- Growth of leaf rosettes compared to mock (Arabidopsis plants [3]; 30 µM): growth reduction
- WUE increase (Arabidopsis plants [3]; 30 µM): 26%

Structure (SMILES): N#Cc1c(C2CC2)cc(CC(=O)NC2(C(=O)O)CCCCC2)cc1C1CC1 [Opabactin]
- Efficacy in elevating leaf temperature (Arabidopsis): ABA-comparable efficacy
- Efficiency in controlling transpiration compared to ABA (tomato): more efficient than ABA
- Activity in controlling transpiration compared to ABA (wheat): comparable activity

- Degree of ester-bond cleavage by PLE (conversion into free acid) (pig liver esterase): complete de-esterification
- Activity in the in vitro receptor assay after esterase treatment (ABI2 with RCARs; pig liver esterase-treated): comparable activity as CCP2
Structure (SMILES): CCCOC(=O)/C=C(\C=C\C(O)(C(C)C)C1(C#N)CC1)CC (stereo not drawn) [CCP3]
- Reporter activation after pig liver esterase treatment (RCAR11-ABI2; 30 µM, PLE-treated prior to yeast exposure): comparable to esterase-treated CCP2 and ABA
- Induction of ABA signaling compared to ABA [4]: not observed
- Leaf temperature increase, activity compared to ABA (Arabidopsis plants [1]; 10, 30, 100 µM, one day after application): almost as active as the non-esterified CCP2
- Activity and persistence of minimized transpiration compared to ABA (Arabidopsis plants [1]; single application 100 µM, recorded for 19 days): more active and persistent than ABA
- Growth reduction compared to the control (Arabidopsis plants [2]): about 60%
- Leaf temperature increase (Arabidopsis plants [2]; 24 h after the first application): highest temperature increase
- Reduction in biomass accumulation compared to the control (Arabidopsis plants [2]; day 57): 60%
- Soil water retained at the end of the drought, of initial soil water (Arabidopsis plants [2]; day 57): approximately 75%
- Growth of leaf rosettes compared to mock (Arabidopsis plants [2]; three administrations): growth reduction
- Leaf temperature increase, activity compared to ABA (wheat plants; 100 μM, 24 h after administration): higher activity than ABA
